We go through four compounds from patent US6703386B2, “Diphenylazetidinone derivatives, process for their preparation, medicaments comprising these compounds and their use” (Aventis Pharma Deutschland GmbH, priority 2000, dated 2004).

Series [1] has as its system cholesterol absorption (uptake of ^14C-cholesterol by the liver). Put plainly: Cholesterol absorption test: uptake of 14C-cholesterol by the liver after peroral test meal. Type of series: in vivo, NMRI mice. The settings on record: dose at which uptake of 14C-cholesterol by the liver is halved vs control group, mouse. The source says:
Effect on Cholesterol Absorption+^3H-taurocholic Acid Excretion Using Fecal Excrement of Mice, Rats or Hamsters
NMRI mice, Wistar rats, or Golden Syrian hamsters (in groups of n=4-6) are kept in metabolic cages, where they are fed with a standard diet (Altromin, Lage (Lippe)). The afternoon prior to the administration of the radioactive tracers (^14C-cholesterol), the feed is removed and the animals are adapted to grates.
Additionally, the animals are labeled s.c. with ^3H-TCA (taurocholic acid) (for example 1 μCi/mouse up to 5 μCi/rat) 24 hours prior to the peroral administration of the test meal (^14C-cholesterol in Intralipid® 20, Pharmacia-Upjohn).
Cholesterol absorption test: 0.25 ml/mouse Intralipid® 20 (Pharmacia-Upjohn) ((spiked with 0.25 μCi of ^14C-cholesterol in 0.1 mg of cholesterol) is administered perorally by gavage.
Test substances are prepared separately in 0.5% methylcellulose (Sigma)/5% Solutol (BASF, Ludwigshafen) or a suitable vehicle.
The administration volume of the test substance is 0.5 ml/mouse. The test substance is administered immediately prior to the test meal (Intralipid labeled with ^14C-cholesterol) (cholesterol absorption test).
The feces are collected over a period of 24 h: fecal elimination of ^14C-cholesterol and ^3H-taurocholic acid (TCA) is determined after 24 hours.
The livers are removed and homogenized, and aliquots are incinerated in an oximate (Model 307, Packard) to determine the amount of ^14C-cholesterol which had been taken up/absorbed.
The amount of ^14C-cholesterol taken up by the liver is based on the administered dose. The ED50 values are interpolated from a dose-effect curve as the dose at which the uptake of ^14C-cholesterol by the liver is halved (50%), based on a control group.

Series [2] concerns Caco-2 cell monolayers. Put plainly: Bioabsorption in the Caco cell model (Hilgers et al.). In kind it is in vitro ADME. The settings on record: estimated from Caco cell model. The source says: The bioabsorption of the compounds of the formula I can be examined using the Caco cell model (A. R. Hilgers et al., Caco-2 cell monolayers as a model for drug transport across the intestinal mucosa, Pharm. Res. 1990, 7, 902).
Below is a bioabsorption measurement for a reference compound

Molecules are shown by their SMILES.

Take `O=C(CCCCCCCCCCC(=O)Nc1ccccc1C(Nc1ccccn1)C(c1ccccn1)C(O)c1ccccc1)NCc1cccc(C2C(CCC(O)c3ccc(F)cc3)C(=O)N2c2ccc(F)cc2)c1.O=C(O)C(F)(F)F` (stereo not shown) [XVI, (1-{2-[11-(3-{1-(4-Fluorophenyl)-3-[3-(4-fluorophenyl)-3-hydroxypropyl]-4-oxoazetidin-2-yl}benzylcarbamoyl)undecanoylamino]phenyl}-3-hydroxy-3-phenyl-2-pyridin-2-ylpropyl)pyridin-2-yl ammonium trifluoroacetate]: the “ED50 (liver)” value in series [1] was found to be 0.03 mg/mouse.
The same measure, in the same setting: for `O=C(COCCOCC(=O)Nc1ccccc1C(Nc1ccccn1)C(c1ccccn1)C(O)c1ccccc1)NCc1ccc(C2C(CCC(O)c3ccc(F)cc3)C(=O)N2c2ccc(F)cc2)cc1.O=C(O)C(F)(F)F` (stereo not shown) [XIX, {1-[2-(2-{2-[(4-{1-(4-Fluorophenyl)-3-[3-(4-fluorophenyl)-3-hydroxypropyl]-4-oxoazetidin-2-yl}benzylcarbamoyl)methoxy]ethoxy}acetylamino)phenyl]-3-hydroxy-3-phenyl-2-pyridin-2-ylpropyl}pyridin-2-ylammonium trifluoroacetate] the value was 0.1 mg/mouse; for `O=C(COCCOCCOCC(=O)Nc1ccccc1C(Nc1ccccn1)C(c1ccccn1)C(O)c1ccccc1)NCc1cccc(C2C(CCC(O)c3ccc(F)cc3)C(=O)N2c2ccc(F)cc2)c1.O=C(O)C(F)(F)F` (stereo not shown) [XVIII, (1-{2-[2-(2-{2-[(3-{1-(4-Fluorophenyl)-3-[3-(4-fluorophenyl)-3-hydroxypropyl]-4-oxoazetidin-2-yl}benzylcarbamoyl)methoxy]ethoxy}ethoxy)acetylamino]phenyl}-3-hydroxy-3-phenyl-2-pyridin-2-ylpropyl)pyridin-2-ylammonium trifluoroacetate], 0.3 mg/mouse.
As to `O=C1[C@H](CC[C@H](O)c2ccc(F)cc2)[C@@H](c2ccc(O)cc2)N1c1ccc(F)cc1` [Ezetimibe], the Estimated human bioabsorption in series [2] is recorded as 100%.
